Measurements published in patent US11242344B2, “(4-hydroxypyrrolidin-2-yl)-heterocyclic compounds and methods of use thereof” (Genentech, Inc., priority 2017, dated 2022).

Target: NanoLuc VHL fusion protein (Homo sapiens (Human), UniProt P40337)
Assay: VHL HEK-293 BRET Assay (NanoBRET Target Engagement)
Assay type: cell-based
Conditions: geometric mean where more than one measurement
Method in brief: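 HEK293 cells stably expressing NanoLuc-VHL, 2 h with compound titration and 1 uM final tracer, then Nano-Glo substrate plus extracellular NanoLuc inhibitor. BRET ratio 610/460 nm, background-corrected with no-tracer wells, normalised to DMSO and 10 uM unlabeled VHL antagonist controls; IC50 by four-parameter fit.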

NanoLuc VHL fusion protein, sequence (P40337 whole entry, looked up, the tested form may be a part): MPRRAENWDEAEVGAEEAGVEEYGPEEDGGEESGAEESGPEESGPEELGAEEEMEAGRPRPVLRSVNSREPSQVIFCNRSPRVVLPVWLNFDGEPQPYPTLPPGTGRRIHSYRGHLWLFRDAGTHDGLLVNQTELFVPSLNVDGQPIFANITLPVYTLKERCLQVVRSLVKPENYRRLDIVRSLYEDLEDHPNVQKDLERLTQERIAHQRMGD
NanoLuc VHL fusion protein, sequence (Q15370 whole entry partner, looked up, the tested form may be a part): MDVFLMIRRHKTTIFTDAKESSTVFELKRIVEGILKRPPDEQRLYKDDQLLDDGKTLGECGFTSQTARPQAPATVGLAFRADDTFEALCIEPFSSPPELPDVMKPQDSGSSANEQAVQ
NanoLuc VHL fusion protein, sequence (Q15369 whole entry partner, looked up, the tested form may be a part): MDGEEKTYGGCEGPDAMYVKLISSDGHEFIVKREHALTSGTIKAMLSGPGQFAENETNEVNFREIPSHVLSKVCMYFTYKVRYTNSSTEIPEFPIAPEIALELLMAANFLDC

- IC50: 64.6 µM
Compound: Cc1ncsc1-c1ccc([C@]2(C)NC(C3C[C@@H](O)CN3C(=O)[C@@H](NC(=O)CCCCCCCCCCNC(=O)c3cc4c(cc3CS(C)(=O)=O)-c3cn(C)c(=O)c5[nH]cc(c35)CN4c3ncc(F)cc3F)C(C)(C)C)=NC2=O)cc1 (single isomer, unassigned) [Example 1005.1]
